Experimental data published in patent US10633358B2, “T-type calcium channel inhibitor” (KINKI UNIVERSITY, priority 2013, dated 2020).
Like-named read-outs stand apart in the source and are kept apart here.

What was measured:
[1] = target: human T-type calcium channel (Homo sapiens, UniProt O95180); assay: cell-based
Protocol: A T-type calcium channel inhibitory action of sophoraflavanone G was measured by a whole-cell patch method using a human renal cell-derived cell line: […] cell forced to express a human T-type calcium channel.
In the whole-cell patch method, a barium current passing as an inward current was measured in a potential jump from −80 mV to −20 mV with the holding potential set to −80 mV using, as an external solution and an internal solution, ones having the compositions shown below. Here, for eliminating influences of a high-threshold-activated-type calcium channel, a value obtained by subtracting from a peak current a current 150 ms after the start of stimulation was used as a T-current for data analysis.
External Solution Composition
Aqueous solution containing the following: 97 mM N-methyl-D-glucamine (NMDG);
10 mM 4-(2-hydroxyethyl)-1-piperazine ethanesulfonic acid (HEPES);
40 mM tetraethylammonium chloride (TEA-Cl); and
Internal Solution Composition
Aqueous solution containing the following:
5 mM glycol ether diamine tetraacetic acid (EGTA)
In FIG. 1, the data are shown as a ratio (%) of a T-current at addition of a compound to a T-current at addition of a solvent (DMSO).
Except that sophoraflavanone G was replaced by 6-prenylnaringenin, the same procedure as in Example 1 was carried out to measure a T-type calcium channel inhibitory action of […].
Except that sophoraflavanone G was replaced by 8-prenylnaringenin, the same procedure as in Example 1 was carried out to measure a T-type calcium channel inhibitory action of […].
These […] values are values calculated by GraphPad Prism® (GraphPad Software, Inc.) using the results of Examples 1 to 3.

[2] = tested on: NaHS-induced hyperalgesia; assay: Action on NaHS-induced hyperalgesia, up-and-down method using a von Frey filament; format: in vivo; conditions: male ddY mouse; for Action on NaHS-induced hyperalgesia (in words): paw sole administration
Protocol: Into the paw sole of a male ddY mouse, 0.1 nmol/paw (volume: 10 μL/paw) of NaHS (sodium hydrogen sulfide) was administered alone, […], and an action of sophoraflavanone G on NaHS-induced hyperalgesia was measured by an up-and-down method using a von Frey filament.
Here, NaHS (sodium hydrogen sulfide) is used as a H2S donor. H2S is a hyperalgesia-inducing substance which is involved in information transmission of pain through a Cav3.2 T-type calcium channel (see Kawabata A. et al. Hydrogen sulfide as a novel nociceptive messenger. Pain. 2007 November; 132(1-2): 74-81. Epub 2007 Mar. 7.).
Except that 6-prenylnaringenin was used in place of sophoraflavanone G, the same procedure as in Example 4 was carried out to measure an action of 6-prenylnaringenin on NaHS-induced hyperalgesia.
Except that 8-prenylnaringenin was used in place of sophoraflavanone G, the same procedure as in Example 4 was carried out to measure an action of 8-prenylnaringenin on NaHS-induced hyperalgesia.

[3] = target: T1, L-type Ca2+ channel (Rattus norvegicus, UniProt P22002); assay: K50-induced contraction in a ring preparation of a rat aorta (endothelium removed); format: cell-based; conditions: for Selectivity T-type over L-type calcium channel (in words): conclusion from Examples 1-3 and 7-9; for inhibition at 0.001 µM / inhibition at 0.003 µM / inhibition at 0.01 µM / inhibition at 0.03 µM / inhibition at 0.1 µM / inhibition at 0.3 µM / inhibition at 1 µM / inhibition at 3 µM: read-out: Inhibitory rate (%) on contraction by K50; for Action on L-type calcium channel (in words): specimen pre-contracted by K50, up to 3 μM
T1 construct: A 1 mm-wide ring preparation was prepared from the thoracic aorta; from tissue; host or cells: thoracic aorta ring preparation (endothelium removed) of male Wistar rats
Protocol: For the experiment, 7 to 10 week-old male Wistar rats (Japan SLC, Inc., Shizuoka, Japan) were used. These experimental animals were bred in a chamber with a 12-hour light-dark cycle maintained at a temperature of about 24° C. while they were allowed to freely take tap water and a solid feed (Oriental Yeast Co., Ltd., Tokyo, Japan).
The rats were caused to hemorrhage to death by cutting the carotid artery under anesthesia, and the thoracic aorta was extracted. Connective tissues and fat were removed from the thoracic aorta in a cooled modified Kreb's liquid. A 1 mm-wide ring preparation was prepared from the thoracic aorta, and the lumen of the specimen was rubbed with rubber to remove the endothelium.
Two 100 μm tungsten wires were inserted into the lumen of the 1 mm-wide ring preparation, and the ring preparation was transferred to a liquid bath with a volume of 10 mL. […] The other ends of tungsten wires inserted into the lumen of the ring preparation were fixed to a tension transducer, and a change in tension of the specimen was isometrically measured. Signals from the tension transducer passed through a blood pressure amplifier to be recorded by a pen recorder. An initial stretching tension of 1 g was applied in a normal Kreb's liquid, and the specimen was equilibrated for 1 hour, and then caused to contract once by a 10^−6 M phenylephrine solution. This procedure was necessary for obtaining stable results. At the end of the experiment, verapamil (Vera) (10^−5 M) and papaverine (10^−4 M) were added to completely relax the specimen. The level at this time was set to 0 for all the measurements of a change in tension.
The reagents used were as follows. • Normal Kreb's liquid: NaCl (118 mM), KCl (4.7 mM), CaCl2 (2.5 mM), MgCl2 (1.2 mM), NaHCO3 (25 mM), KH2PO4 (1.2 mM) and glucose (10 mM) were diluted with H2O to 1 L, and ventilated for 10 minutes with a mixed gas of 95% of O2 and 5% of CO2, and 2.5 mL of a 1 M CaCl2 solution was then added. • Kreb's liquid (K50): NaCl (73.9 mM), KCl (48.8 mM), CaCl2 (2.5 mM), MgCl2 (1.2 mM), NaHCO3 (25 mM), KH2PO4 (1.2 mM) and glucose (10 mM) were diluted with H2O to 1 L, and ventilated for 10 minutes with a mixed gas of 95% of O2 and 5% of CO2, and 2.5 mL of a 1 M CaCl2 solution was then added. • Acetylcholine hydrochloride (Ach, manufactured by Sigma) • Verapamil hydrochloride (Vera, manufactured by Eisai Co., Ltd. (Tokyo)) • Papaverine hydrochloride (manufactured by Sigma) 5. Results
Thereafter, the specimen was washed three times with the Normal Kreb's liquid, and to the specimen caused to pre-contract by the Kreb's liquid (K50) containing 50 mM potassium ions, 1 μL of 1 μM of sophoraflavanone G (final concentration: 0.001 μM) dissolved in DMSO, 2 μL of 1 μM of the sophoraflavanone G (final concentration: 0.003 μM), 7 μL of 1 μM of the sophoraflavanone G (final concentration: 0.01 μM), 2 μL of 10 μM of the sophoraflavanone G (final concentration: 0.03 μM), 7 μL of 10 μM of the sophoraflavanone G (final concentration: 0.1 μM), 2 μL of 10 μM of the sophoraflavanone G (final concentration: 0.3 μM), 7 μL of 100 μM of the sophoraflavanone G (final concentration: 1 μM) and […] of the sophoraflavanone G (final concentration: 3 μM) were accumulatively added in a liquid bath containing 10 mL of the Kreb's liquid.
Except that 6-prenylnaringenin was used in place of sophoraflavanone G, the same procedure as in Example 7 was carried out to examine effects on an L-type Ca^2+ channel.
Except that 8-prenylnaringenin was used in place of sophoraflavanone G, the same procedure as in Example 7 was carried out to examine effects on an L-type Ca^2+ channel.

[4] = HEK293, read-out: Inhibition rate (%)
[5] = NaHS 0.1 nmol/paw sole + compound 0.1 nmol/paw sole
[6] = NaHS 0.1 nmol/paw sole + compound 1 nmol/paw sole
[7] = NaHS 0.1 nmol/paw sole + compound 10 nmol/paw sole
[8] = 0.001 μM final concentration, accumulatively added, rat aorta ring
[9] = 0.003 μM final concentration, accumulatively added, rat aorta ring
[10] = 0.01 μM final concentration, accumulatively added, rat aorta ring
[11] = 0.03 μM final concentration, accumulatively added, rat aorta ring
[12] = 0.1 μM final concentration, accumulatively added, rat aorta ring
[13] = 0.3 μM final concentration, accumulatively added, rat aorta ring
[14] = 1 μM final concentration, accumulatively added, rat aorta ring
[15] = 3 μM final concentration, accumulatively added, rat aorta ring

T1 sequence (P22002 whole entry): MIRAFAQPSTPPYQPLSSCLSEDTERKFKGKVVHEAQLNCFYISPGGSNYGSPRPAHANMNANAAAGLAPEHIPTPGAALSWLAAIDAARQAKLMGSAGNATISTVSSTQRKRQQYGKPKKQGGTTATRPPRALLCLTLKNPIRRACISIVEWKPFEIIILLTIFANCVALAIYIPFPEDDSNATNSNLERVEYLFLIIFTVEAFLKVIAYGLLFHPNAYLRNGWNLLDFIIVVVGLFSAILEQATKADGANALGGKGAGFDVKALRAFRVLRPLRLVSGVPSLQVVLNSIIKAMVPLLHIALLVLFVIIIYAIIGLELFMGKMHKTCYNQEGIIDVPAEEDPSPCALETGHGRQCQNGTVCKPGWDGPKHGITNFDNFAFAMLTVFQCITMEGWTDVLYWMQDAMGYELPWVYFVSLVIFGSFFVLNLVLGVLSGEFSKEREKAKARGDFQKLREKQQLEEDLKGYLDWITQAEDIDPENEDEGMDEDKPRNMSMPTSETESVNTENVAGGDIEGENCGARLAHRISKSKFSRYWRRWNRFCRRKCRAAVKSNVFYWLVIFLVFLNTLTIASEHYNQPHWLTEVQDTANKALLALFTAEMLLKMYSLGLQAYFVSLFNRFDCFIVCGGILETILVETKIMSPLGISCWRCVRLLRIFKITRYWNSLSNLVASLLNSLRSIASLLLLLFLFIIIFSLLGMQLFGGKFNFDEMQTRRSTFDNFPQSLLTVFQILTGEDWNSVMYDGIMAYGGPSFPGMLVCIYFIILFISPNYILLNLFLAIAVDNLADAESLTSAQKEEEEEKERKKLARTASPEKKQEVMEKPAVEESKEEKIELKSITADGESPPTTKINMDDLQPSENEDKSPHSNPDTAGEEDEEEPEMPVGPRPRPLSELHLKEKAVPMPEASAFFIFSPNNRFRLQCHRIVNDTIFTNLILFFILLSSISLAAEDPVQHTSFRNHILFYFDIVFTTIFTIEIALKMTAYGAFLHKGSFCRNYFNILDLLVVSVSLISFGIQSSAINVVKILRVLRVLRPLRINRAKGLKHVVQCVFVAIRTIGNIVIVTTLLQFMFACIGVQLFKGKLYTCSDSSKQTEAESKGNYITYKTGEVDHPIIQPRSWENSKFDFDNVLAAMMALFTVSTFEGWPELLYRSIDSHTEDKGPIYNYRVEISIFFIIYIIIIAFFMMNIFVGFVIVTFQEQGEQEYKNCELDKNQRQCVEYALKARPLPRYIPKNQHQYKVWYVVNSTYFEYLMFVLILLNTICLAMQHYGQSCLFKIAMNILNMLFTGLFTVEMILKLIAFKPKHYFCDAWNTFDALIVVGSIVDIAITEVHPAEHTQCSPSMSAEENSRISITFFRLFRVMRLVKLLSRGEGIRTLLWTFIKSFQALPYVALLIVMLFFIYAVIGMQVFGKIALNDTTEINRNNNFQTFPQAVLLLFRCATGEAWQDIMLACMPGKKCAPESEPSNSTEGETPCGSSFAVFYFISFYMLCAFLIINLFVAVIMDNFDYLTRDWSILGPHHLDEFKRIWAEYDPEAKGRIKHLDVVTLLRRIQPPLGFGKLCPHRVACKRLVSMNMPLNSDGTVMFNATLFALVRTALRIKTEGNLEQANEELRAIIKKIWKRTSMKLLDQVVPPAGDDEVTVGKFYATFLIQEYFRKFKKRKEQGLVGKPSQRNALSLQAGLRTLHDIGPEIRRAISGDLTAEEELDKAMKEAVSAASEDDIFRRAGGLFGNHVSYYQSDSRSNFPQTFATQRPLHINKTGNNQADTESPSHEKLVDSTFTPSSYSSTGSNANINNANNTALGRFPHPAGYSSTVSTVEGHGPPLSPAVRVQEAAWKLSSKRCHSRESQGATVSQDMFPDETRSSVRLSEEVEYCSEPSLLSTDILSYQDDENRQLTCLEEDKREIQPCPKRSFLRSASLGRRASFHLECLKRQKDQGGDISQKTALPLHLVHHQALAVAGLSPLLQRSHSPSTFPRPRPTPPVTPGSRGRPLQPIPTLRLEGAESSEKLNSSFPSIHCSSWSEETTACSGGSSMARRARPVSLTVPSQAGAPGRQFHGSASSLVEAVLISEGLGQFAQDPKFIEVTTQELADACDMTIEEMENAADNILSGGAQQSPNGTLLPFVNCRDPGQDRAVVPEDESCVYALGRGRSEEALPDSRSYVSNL
T1 sequence (P54290 25-944 partner limits assumed): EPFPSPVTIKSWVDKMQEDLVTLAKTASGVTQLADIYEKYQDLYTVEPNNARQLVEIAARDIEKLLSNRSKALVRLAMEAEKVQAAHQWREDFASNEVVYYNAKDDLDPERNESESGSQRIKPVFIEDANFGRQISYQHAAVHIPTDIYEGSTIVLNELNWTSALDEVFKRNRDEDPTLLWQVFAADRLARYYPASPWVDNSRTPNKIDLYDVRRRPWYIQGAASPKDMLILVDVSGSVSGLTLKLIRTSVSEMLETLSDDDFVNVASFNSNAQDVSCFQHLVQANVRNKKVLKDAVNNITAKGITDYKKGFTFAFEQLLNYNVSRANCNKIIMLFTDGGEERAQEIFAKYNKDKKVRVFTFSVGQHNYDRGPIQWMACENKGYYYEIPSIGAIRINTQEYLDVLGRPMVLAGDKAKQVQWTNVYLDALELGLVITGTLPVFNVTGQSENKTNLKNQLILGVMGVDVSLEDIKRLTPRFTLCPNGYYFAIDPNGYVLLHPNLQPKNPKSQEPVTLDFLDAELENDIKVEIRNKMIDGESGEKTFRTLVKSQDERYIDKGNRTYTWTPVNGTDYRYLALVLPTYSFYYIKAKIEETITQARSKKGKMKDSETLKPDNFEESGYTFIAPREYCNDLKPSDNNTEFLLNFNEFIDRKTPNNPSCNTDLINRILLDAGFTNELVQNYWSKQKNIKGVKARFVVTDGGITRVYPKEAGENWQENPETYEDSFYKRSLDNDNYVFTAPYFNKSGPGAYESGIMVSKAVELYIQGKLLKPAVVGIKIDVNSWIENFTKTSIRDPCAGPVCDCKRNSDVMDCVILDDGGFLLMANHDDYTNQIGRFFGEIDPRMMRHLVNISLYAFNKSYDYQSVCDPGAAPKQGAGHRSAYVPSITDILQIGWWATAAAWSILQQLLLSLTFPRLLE
T1 sequence (P54290 945-1091 partner limits assumed): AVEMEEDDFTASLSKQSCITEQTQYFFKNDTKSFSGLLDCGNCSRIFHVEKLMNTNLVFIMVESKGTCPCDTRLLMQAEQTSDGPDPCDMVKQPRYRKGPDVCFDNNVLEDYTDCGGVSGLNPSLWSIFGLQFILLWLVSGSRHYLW

| Compound | inhibition at 1 µM [1, 4] | inhibition at 3 µM [1, 4] | Hyperalgesia threshold (g) Average value ± standard error [2, 5] | Hyperalgesia threshold (g) Average value ± standard error [2, 6] | Hyperalgesia threshold (g) Average value ± standard error [2, 7] | Action on NaHS-induced hyperalgesia (in words) [2] | Selectivity T-type over L-type calcium channel (in words) [3] | Action on L-type calcium channel (in words) [3] | inhibition at 0.001 µM [3, 8] | inhibition at 0.003 µM [3, 9] | inhibition at 0.01 µM [3, 10] | inhibition at 0.03 µM [3, 11] | inhibition at 0.1 µM [3, 12] | inhibition at 0.3 µM [3, 13] | inhibition at 1 µM [3, 14] | inhibition at 3 µM [3, 15] | further results |
| --- | --- | --- | --- | --- | --- | --- | --- | --- | --- | --- | --- | --- | --- | --- | --- | --- | --- |
| CC(C)=CCc1c(O)cc2c(c1O)C(=O)C[C@@H](c1ccc(O)cc1)O2 [6-Prenylnaringenin, (2S)-5,7-dihydroxy-2,3-dihydro-2-(4-hydroxyphenyl)-6-(3-methyl-2-butenyl)-4H-1-benzopyran-4-one] | 82.7% | 99% | 0.28 ± 0.07 g | 0.31 ± 0.06 g | 0.52 ± 0.09 g | inhibits NaHS-induced hyperalgesia | T-type calcium channel-specific inhibitor | does not act on an L-type calcium channel |  |  |  |  |  |  |  |  | inhibition at 0.3 µM [1, 4]: 0%; inhibition at 0.001 µM [3]: 0%; inhibition at 0.003 µM [3]: 0%; inhibition at 0.01 µM [3]: 4.1%; inhibition at 0.03 µM [3]: 6.1%; inhibition at 0.1 µM [3]: 4.1%; inhibition at 0.3 µM [3]: 4.1%; inhibition at 1 µM [3]: 4.1%; inhibition at 3 µM [3]: 4.1% |
| C=C(C)[C@H](CC=C(C)C)Cc1c(O)cc(O)c2c1O[C@H](c1ccc(O)cc1O)CC2=O [Sophoraflavanone G, (2S)-5,7-dihydroxy-2,3-dihydro-2-(2,4-dihydroxyphenyl)-8-[(R)-5-methyl-2-(1-methylethenyl)-4-hexenyl]-4H-1-benzopyran-4-one] | 61.1% | 97.7% |  |  |  | inhibits NaHS-induced hyperalgesia | T-type calcium channel-specific inhibitor | does not act on an L-type calcium channel | 0% | 0% | 5.6% | 5.6% | 5.6% | 5.6% | 11.1% | 8.3% | inhibition at 0.5 µM [1, 4]: 25.9%; Hyperalgesia threshold (g) Average value ± standard error ([2]; NaHS 0.1 nmol/paw sole + compound 1 pmol/paw sole): 0.11 ± 0.04 g; Hyperalgesia threshold (g) Average value ± standard error ([2]; NaHS 0.1 nmol/paw sole + compound 10 pmol/paw sole): 0.35 ± 0.07 g; Hyperalgesia threshold (g) Average value ± standard error ([2]; NaHS 0.1 nmol/paw sole + compound 30 pmol/paw sole): 0.34 ± 0.10 g |
| CC(C)=CCc1c(O)cc(O)c2c1O[C@H](c1ccc(O)cc1)CC2=O [8-Prenylnaringenin, (2S)-5,7-dihydroxy-2,3-dihydro-2-(4-hydroxyphenyl)-8-(3-methyl-2-butenyl)-4H-1-benzopyran-4-one] |  |  | 0.23 ± 0.04 g | 0.41 ± 0.04 g | 0.55 ± 0.05 g | inhibits NaHS-induced hyperalgesia | T-type calcium channel-specific inhibitor | does not act on an L-type calcium channel | 0% | 0% | 7.4% | 0% | 11.1% | 14.8% | 22.2% | 25.9% | inhibition at 0.3 µM ([1]; HEK293, compound concentration 300 nM, T-current, HEK 293 cell expressing human T-type calcium channel, read-out: Inhibition rate (%)): 16.4%; inhibition at 1 µM ([1]; HEK293, compound concentration 1000 nM, T-current, HEK 293 cell expressing human T-type calcium channel, read-out: Inhibition rate (%)): 64.9%; inhibition at 3 µM ([1]; HEK293, compound concentration 3000 nM, T-current, HEK 293 cell expressing human T-type calcium channel, read-out: Inhibition rate (%)): 91%; inhibition at 10 µM ([1]; HEK293, compound concentration 10000 nM, T-current, HEK 293 cell expressing human T-type calcium channel, read-out: Inhibition rate (%)): 99.9% |
